# Experimental data from PubChem BioAssay (NCI).
#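 In this assay, cells in 96-well plates receive the compound at five concentrations for 48 hours. Endpoints are linearly interpolated between the surrounding concentrations. The concentration for full growth arrest is given as TGI.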
# System: NCI-H23 lung
# Assay: DTP human tumour cell line panel, 48 h
row,SMILES,TGI [µM]
1,O=c1nc2occc2cn1C1CC(O)C(CO)O1 (stereo not drawn),> 100
2,COC(=O)C12C3C4C1C1C2C3C41C(=O)OC(C)(C)C (stereo not drawn),> 100

# System: SF-268 CNS
# Assay: DTP human tumour cell line panel, 48 h
row,SMILES,TGI [µM]
1,COC(=O)C(C(=O)C(=O)Nc1cccc(OC)c1)c1cnc2ccccc2n1 (stereo not drawn),> 100
2,O=c1nc2occc2cn1C1CC(O)C(CO)O1 (stereo not drawn),> 100
3,COC(=O)C12C3C4C1C1C2C3C41C(=O)OC(C)(C)C (stereo not drawn),> 100

# System: M19-MEL melanoma
# Assay: DTP human tumour cell line panel, 48 h
row,SMILES,TGI [µM]
1,O=C(O)CNc1cc(-c2ccccc2)nc(NCC(=O)O)n1,> 100
2,O=c1nc2occc2cn1C1CC(O)C(CO)O1 (stereo not drawn),> 100
3,COC(=O)C12C3C4C1C1C2C3C41C(=O)OC(C)(C)C (stereo not drawn),> 100

# System: SF-295 CNS
# Assay: DTP human tumour cell line panel, 48 h
row,SMILES,TGI [µM]
1,COC(=O)C(C(=O)C(=O)Nc1cccc(OC)c1)c1cnc2ccccc2n1 (stereo not drawn),> 100
2,O=C(O)CNc1cc(-c2ccccc2)nc(NCC(=O)O)n1,> 100
3,O=c1nc2occc2cn1C1CC(O)C(CO)O1 (stereo not drawn),> 100
4,COC(=O)C12C3C4C1C1C2C3C41C(=O)OC(C)(C)C (stereo not drawn),> 100

# System: HOP-62 NSCLC
# Assay: DTP human tumour cell line panel, 48 h
row,SMILES,TGI [µM]
1,COC(=O)C(C(=O)C(=O)Nc1cccc(OC)c1)c1cnc2ccccc2n1 (stereo not drawn),> 100
2,O=C(O)CNc1cc(-c2ccccc2)nc(NCC(=O)O)n1,> 100
3,O=c1nc2occc2cn1C1CC(O)C(CO)O1 (stereo not drawn),> 100
4,COC(=O)C12C3C4C1C1C2C3C41C(=O)OC(C)(C)C (stereo not drawn),> 100

# System: CCRF-CEM leukemia
# Assay: DTP human tumour cell line panel, 48 h
row,SMILES,TGI [µM]
1,COC(=O)C(C(=O)C(=O)Nc1cccc(OC)c1)c1cnc2ccccc2n1 (stereo not drawn),> 100
2,O=C(O)CNc1cc(-c2ccccc2)nc(NCC(=O)O)n1,> 100
3,O=c1nc2occc2cn1C1CC(O)C(CO)O1 (stereo not drawn),> 100
4,COC(=O)C12C3C4C1C1C2C3C41C(=O)OC(C)(C)C (stereo not drawn),> 100

# System: RXF 393 renal
# Assay: DTP human tumour cell line panel, 48 h
row,SMILES,TGI [µM]
1,COC(=O)C(C(=O)C(=O)Nc1cccc(OC)c1)c1cnc2ccccc2n1 (stereo not drawn),> 100
2,O=c1nc2occc2cn1C1CC(O)C(CO)O1 (stereo not drawn),> 100
3,COC(=O)C12C3C4C1C1C2C3C41C(=O)OC(C)(C)C (stereo not drawn),> 100

# System: SN12C renal
# Assay: DTP human tumour cell line panel, 48 h
row,SMILES,TGI [µM]
1,COC(=O)C(C(=O)C(=O)Nc1cccc(OC)c1)c1cnc2ccccc2n1 (stereo not drawn),> 100
2,O=C(O)CNc1cc(-c2ccccc2)nc(NCC(=O)O)n1,> 100
3,O=c1nc2occc2cn1C1CC(O)C(CO)O1 (stereo not drawn),> 100
4,COC(=O)C12C3C4C1C1C2C3C41C(=O)OC(C)(C)C (stereo not drawn),> 100

# System: HL-60(TB) leukemia
# Assay: DTP human tumour cell line panel, 48 h
row,SMILES,TGI [µM]
1,COC(=O)C(C(=O)C(=O)Nc1cccc(OC)c1)c1cnc2ccccc2n1 (stereo not drawn),> 100
2,O=C(O)CNc1cc(-c2ccccc2)nc(NCC(=O)O)n1,> 100
3,O=c1nc2occc2cn1C1CC(O)C(CO)O1 (stereo not drawn),> 100
4,COC(=O)C12C3C4C1C1C2C3C41C(=O)OC(C)(C)C (stereo not drawn),> 100

# System: CAKI-1 renal
# Assay: DTP human tumour cell line panel, 48 h
row,SMILES,TGI [µM]
1,COC(=O)C(C(=O)C(=O)Nc1cccc(OC)c1)c1cnc2ccccc2n1 (stereo not drawn),> 100
2,O=C(O)CNc1cc(-c2ccccc2)nc(NCC(=O)O)n1,> 100
3,O=c1nc2occc2cn1C1CC(O)C(CO)O1 (stereo not drawn),> 100
4,COC(=O)C12C3C4C1C1C2C3C41C(=O)OC(C)(C)C (stereo not drawn),> 100

# System: NCI-H226 lung
# Assay: DTP human tumour cell line panel, 48 h
row,SMILES,TGI [µM]
1,COC(=O)C(C(=O)C(=O)Nc1cccc(OC)c1)c1cnc2ccccc2n1 (stereo not drawn),> 100
2,O=C(O)CNc1cc(-c2ccccc2)nc(NCC(=O)O)n1,> 100
3,O=c1nc2occc2cn1C1CC(O)C(CO)O1 (stereo not drawn),> 100
4,COC(=O)C12C3C4C1C1C2C3C41C(=O)OC(C)(C)C (stereo not drawn),> 100

# System: K-562 leukemia
# Assay: DTP human tumour cell line panel, 48 h
row,SMILES,TGI [µM]
1,COC(=O)C(C(=O)C(=O)Nc1cccc(OC)c1)c1cnc2ccccc2n1 (stereo not drawn),> 100
2,O=C(O)CNc1cc(-c2ccccc2)nc(NCC(=O)O)n1,> 100
3,O=c1nc2occc2cn1C1CC(O)C(CO)O1 (stereo not drawn),> 100
4,COC(=O)C12C3C4C1C1C2C3C41C(=O)OC(C)(C)C (stereo not drawn),> 100

# System: OVCAR-3 ovarian
# Assay: DTP human tumour cell line panel, 48 h
row,SMILES,TGI [µM]
1,O=C(O)CNc1cc(-c2ccccc2)nc(NCC(=O)O)n1,> 100
2,O=c1nc2occc2cn1C1CC(O)C(CO)O1 (stereo not drawn),> 100
3,COC(=O)C12C3C4C1C1C2C3C41C(=O)OC(C)(C)C (stereo not drawn),> 100

# System: EKVX NSCLC
# Assay: DTP human tumour cell line panel, 48 h
row,SMILES,TGI [µM]
1,COC(=O)C(C(=O)C(=O)Nc1cccc(OC)c1)c1cnc2ccccc2n1 (stereo not drawn),> 100
2,O=C(O)CNc1cc(-c2ccccc2)nc(NCC(=O)O)n1,> 100
3,O=c1nc2occc2cn1C1CC(O)C(CO)O1 (stereo not drawn),> 100
4,COC(=O)C12C3C4C1C1C2C3C41C(=O)OC(C)(C)C (stereo not drawn),> 100

# System: XF 498 CNS
# Assay: DTP human tumour cell line panel, 48 h
row,SMILES,TGI [µM]
1,COC(=O)C(C(=O)C(=O)Nc1cccc(OC)c1)c1cnc2ccccc2n1 (stereo not drawn),> 100
2,O=C(O)CNc1cc(-c2ccccc2)nc(NCC(=O)O)n1,> 100
3,O=c1nc2occc2cn1C1CC(O)C(CO)O1 (stereo not drawn),> 100
4,COC(=O)C12C3C4C1C1C2C3C41C(=O)OC(C)(C)C (stereo not drawn),> 100

# System: DMS 273 small cell lung
# Assay: DTP human tumour cell line panel, 48 h
row,SMILES,TGI [µM]
1,COC(=O)C(C(=O)C(=O)Nc1cccc(OC)c1)c1cnc2ccccc2n1 (stereo not drawn),> 100
2,O=C(O)CNc1cc(-c2ccccc2)nc(NCC(=O)O)n1,> 100
3,O=c1nc2occc2cn1C1CC(O)C(CO)O1 (stereo not drawn),> 100
4,COC(=O)C12C3C4C1C1C2C3C41C(=O)OC(C)(C)C (stereo not drawn),> 60.5
